The values below come from patent US12338199B2, “Bis-octahydrophenanthrene carboxamides and protein conjugates thereof” (REGENERON PHARMACEUTICALS, INC., priority 2017, dated 2025).

The target in one assay is T1, LXR alpha (Homo sapiens, UniProt Q13133).
T1 construct: LXR alpha or beta LBD-GST; purchased ThermoFisher PV4655
T1 sequence (Q13133 209-447 limits assumed): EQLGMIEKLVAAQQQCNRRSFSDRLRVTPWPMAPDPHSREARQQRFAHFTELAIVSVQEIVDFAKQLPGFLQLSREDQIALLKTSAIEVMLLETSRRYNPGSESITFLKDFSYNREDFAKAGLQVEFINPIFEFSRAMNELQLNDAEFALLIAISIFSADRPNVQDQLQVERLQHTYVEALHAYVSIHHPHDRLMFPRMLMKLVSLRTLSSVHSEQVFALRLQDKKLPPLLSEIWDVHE
The assay is described as follows: LanthaScreen TR-FRET LXR alpha Coactivator Assay (cell-free binding). The note with it: TR-FRET, 12-point curve; read-out: Cell free binding LXRα IC50. Here is the method: (§1) To evaluate the ability of novel LXR agonists to bind to the LXR alpha and beta receptor, a cell-free binding assay was performed using a LanthaScreen TR-FRET LXR alpha Coactivator Assay Kit (ThermoFisher, Cat # PV4655) and LXR beta Coactivator Assay Kit (ThermoFisher, Cat # PV4658). The assay was performed according to the manufacturer's instructions. Briefly, a 3-fold serial dilution of LXR agonists were prepared in 100% DMSO starting at 100 μM (100× of final). Serial dilutions were further diluted 50-fold in nuclear receptor buffer F with 5 mM DTT, and transferred to a 384-well assay plate. Next, Fluorescein-D22, LXR alpha or beta LBD-GST, and Tb anti-GST antibody was sequentially added to 384-well assay plate. The plate was then incubated at rt for 2.5 hours while being protected from light. […] The IC50 values were determined using a four-parameter logistic equation over a 12-point response curve (GraphPad Prism).

The target of a further assay is T2, LXR beta (Homo sapiens, UniProt P55055).
T2 construct: LXR alpha or beta LBD-GST; purchased ThermoFisher PV4658
T2 sequence (P55055 222-460 limits assumed): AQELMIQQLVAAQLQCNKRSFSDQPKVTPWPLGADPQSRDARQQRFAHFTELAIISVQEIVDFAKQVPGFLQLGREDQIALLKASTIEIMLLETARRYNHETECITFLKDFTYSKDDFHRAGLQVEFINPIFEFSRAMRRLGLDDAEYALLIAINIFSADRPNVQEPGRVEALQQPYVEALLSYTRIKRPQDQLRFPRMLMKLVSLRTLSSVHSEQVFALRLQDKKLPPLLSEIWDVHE
The assay can be described thus: LanthaScreen TR-FRET LXR beta Coactivator Assay (cell-free binding). The note with it: TR-FRET, 12-point curve; read-out: Cell free binding LXRβ IC50. The procedure: as §1

The subject of a further assay is THP1/LXR-Luc cells. The assay can be described thus: THP1/LXR-Luc luciferase reporter bioassay. As to conditions: Homo sapiens, THP-1, 48 hours; for EC50: read-out: Activation of THP1/LXR-Luc cells: EC50; for Emax: relative to maximum activation of free payload 9d, read-out: Activation of THP1/LXR-Luc cells: Fold of activation. It is filed as cell-based. An excerpt: The fold activation in the cell-based assays (as described in Example 68, below) was defined based on the maximum activation of the free payload 9d.
A bioassay was developed to assess the activity of LXR agonists after internalization of an agonist or of a ncADC into cells and binding to LXR, a nuclear receptor, using a commercially available LXR reporter (referred to as LXR-Luc) that contains the firefly luciferase gene under control by minimal CMV promoter and tandem repeats of the LXR transcriptional response element. For this assay, a THP1 cell line, which is a human monocytic leukaemia line, was engineered to express full length human Her2 (expressing amino acids M1 through V1255 of accession number NP_004439.2). The subsequent stable cell line was further transduced with a Cignal LXR Luc Reporter (Qiagen, Cat # CLS-7041L). The resulting stable cell line is referred to herein as THP1/Her2/LXR-Luc. The Her2 cell surface expression on THP1/Her2/LXR-Luc cell line was confirmed by FACS (data not shown).
Additionally, a THP1 cell line was transduced with a Cignal LXR Luc Reporter (Qiagen, Cat # CLS-7041L) without the addition of Her2. The resulting stable cell line is referred to herein as THP1/LXR-Luc. All of the antibodies used in the subsequent bioassays were assessed for their ability to internalize and release a payload on the bioassay cell line used.
This example assessed the ability of the LXR agonists provided herein, reference compounds, and anti-Her2 antibody-LXR ncADC to activate LXR. The samples were tested in the THP1/LXR-Luc/Her2 bioassay. For the assay, either THP1/LXR-Luc cells or THP1/LXR-Luc/Her2 cells were seeded onto white 96 well plates at 30,000 cells/well in media containing RPMI supplemented with 10% FBS and pencillin/streptomycin (complete media). Subsequently 3-fold serial dilutions of antibody drug conjugates, unconjugated antibodies, or free payloads were added to the cells at final concentration ranging from 100 nM to 0.01 nM. After 48-hour or 72-hour incubation, luciferase activity was determined after the addition of One-Glo™ reagent (Promega, Cat # E6130) to each well of cells. Relative light units (RLUs) were measured on a Victor luminometer (PerkinElmer) and the EC5o values were determined using a four-parameter logistic equation over a 10-point dose response curve (GraphPad Prism) (FIG. 15). The fold activation is calculated based on the maximum activation of the free payload 9d.

A word on the IC50: it is the midpoint of a concentration-inhibition curve.

Structures can show the parent of a compound that is named as a salt.

For the molecule `C[C@]1(C(=O)NC(=O)[C@@]2(C)CCC[C@]3(C)c4cc(NC(=O)CCCC(=O)O)ccc4CC[C@@H]23)CCC[C@]2(C)c3cc(O)ccc3CC[C@@H]12` [Compound 9q, 4-{[(4bS,8S,8aR)-8-{[(1S,4aS,10aR)-6-Hydroxy-1,4a-dimethyl-1,2,3,4,4a,9,10,10a-octahydrophenanthrene-1-carbonyl]carbamoyl}-4b,8-dimethyl-4b,5,6,7,8,8a,9,10-octahydrophenanthren-3-yl]carbamoyl}butanoic Acid], the IC50 on LXR alpha was less than 10 nM. The IC50 at LXR beta was less than 10 nM. Also, in the assay on THP1/LXR-Luc cells, the EC50 fell in the range of 10 to 100 nM and the Emax is more than 75%.
Turning to `CNCC(=O)Nc1ccc2c(c1)[C@@]1(C)CCC[C@](C)(C(=O)NC(=O)[C@@]3(C)CCC[C@]4(C)c5cc(O)ccc5CC[C@@H]34)[C@@H]1CC2` [Compound 9k, (1S,4aS,10aR)—N-((1S,4aS,10aR)-1,4a-Dimethyl-6-(2-(methylamino)acetamido)-1,2,3,4,4a,9,10,10a-octahydrophenanthrene-1-carbonyl)-6-hydroxy-1,4a-dimethyl-1,2,3,4,4a,9,10,10a-octahydrophenanthrene-1-carboxamide; Trifluoroacetic Acid Salt], the IC50 on LXR alpha fell in the range of 10 to 100 nM. Also, the IC50 on LXR beta is less than 10 nM. In the assay on THP1/LXR-Luc cells, the EC50 fell in the range of 1 to 10 nM and the Emax is more than 75%.
For `C[C@]1(C(=O)NC(=O)[C@@]2(C)CCC[C@]3(C)c4cc(N5CCNCC5)ccc4CC[C@@H]23)CCC[C@]2(C)c3cc(O)ccc3CC[C@@H]12` [Compound 9e, (1S,4aS,10aR)—N-((1S,4aS,10aR)-1,4a-Dimethyl-6-(piperazin-1-yl)-1,2,3,4,4a,9,10,10a-octahydrophenanthrene-1-carbonyl)-6-hydroxy-1,4a-dimethyl-1,2,3,4,4a,9,10,10a-octahydrophenanthrene-1-carboxamide], in that order: less than 10 nM, less than 10 nM, 1 to 10 nM and more than 75%.
In the case of `C[C@]1(C(=O)NC(=O)[C@@]2(C)CCC[C@]3(C)c4cc(NC(=O)[C@@H](N)CC(=O)O)ccc4CC[C@@H]23)CCC[C@]2(C)c3cc(O)ccc3CC[C@@H]12` [Compound 9n, (3S)-3-Amino-3-{[(4bS,8S,8aR)-8-{[(1S,4aS,10aR)-6-hydroxy-1,4a-dimethyl-1,2,3,4,4a,9,10,10a-octahydrophenanthrene-1-carbonyl]carbamoyl}-4b,8-dimethyl-4b,5,6,7,8,8a,9,10-octahydrophenanthren-3-yl]carbamoyl}propanoic Acid], on LXR alpha, the IC50 is 10 to 100 nM. Moreover, the IC50 on LXR beta is less than 10 nM. For the same molecule, in the assay with THP1/LXR-Luc cells, the EC50 is not above 1 nM and the Emax is more than 75%.
As for `C[C@]1(CNC(=O)[C@@]2(C)CCC[C@]3(C)c4cc(O)ccc4CC[C@@H]23)CCC[C@]2(C)c3cc(O)ccc3CC[C@@H]12` [Compound 9u, (1S,4aS,10aR)—N-{[(1S,4aS,10aR)-6-Hydroxy-1,4a-dimethyl-1,2,3,4,4a,9,10,10a-octahydrophenanthren-1-yl]methyl}-6-hydroxy-1,4a-dimethyl-1,2,3,4,4a,9,10,10a-octahydrophenanthrene-1-carboxamide], in the assay on THP1/LXR-Luc cells, the EC50 was 1 to 10 nM and the Emax lay in the range of 25 to 75%.
`C[C@]1(C(=O)NC(=O)[C@@]2(C)CCC[C@]3(C)c4cc(OCCN)ccc4CC[C@@H]23)CCC[C@]2(C)c3cc(O)ccc3CC[C@@H]12` [Compound 9c, (1S,4aS,10aR)-6-(2-Aminoethoxy)-N-((1S,4aS,10aR)-6-hydroxy-1,4a-dimethyl-1,2,3,4,4a,9,10,10a-octahydrophenanthrene-1-carbonyl)-1,4a-dimethyl-1,2,3,4,4a,9,10,10a-octahydrophenanthrene-1-carboxamide]: the IC50 on LXR alpha is 10 to 100 nM. Also, on LXR beta, the IC50 is less than 10 nM. In addition, in the assay with THP1/LXR-Luc cells, the EC50 was in the range of 10 to 100 nM and the Emax is more than 75%.
As to `C[C@]1(C(=O)NC(=O)[C@@]2(C)CCC[C@]3(C)c4cc(NC(=O)[C@@H](N)Cc5c[nH]cn5)ccc4CC[C@@H]23)CCC[C@]2(C)c3cc(O)ccc3CC[C@@H]12` [Compound 9m, (1S,4aS,10aR)—N-[(1S,4aS,10aR)-6-Hydroxy-1,4a-dimethyl-1,2,3,4,4a,9,10,10a-octahydrophenanthrene-1-carbonyl]-6-[(2S)-2-amino-3-(1H-imidazol-4-yl)propanamido]-1,4a-dimethyl-1,2,3,4,4a,9,10,10a-octahydrophenanthrene-1-carboxamide; trifluoroacetic acid salt], the IC50 was 10 to 100 nM on LXR alpha and less than 10 nM at LXR beta. Also, the EC50 in the assay with THP1/LXR-Luc cells was in the range of 1 to 10 nM. Further, the Emax in the assay with THP1/LXR-Luc cells was more than 75%.
For `O=C(O)Cc1cccc(OCCCN(Cc2cccc(C(F)(F)F)c2Cl)CC(c2ccccc2)c2ccccc2)c1` [GW3965], in that order: less than 10 nM, less than 10 nM, more than 100 nM and more than 75%.
For `C[C@]1(C(=O)NC(=O)[C@@]2(C)CCC[C@]3(C)c4cc(O)ccc4CC[C@@H]23)CCC[C@]2(C)c3cc(O)ccc3CC[C@@H]12` [Compound 9a, (1S,4aS,10aR)-6-Hydroxy-N-((1S,4aS,10aR)-6-hydroxy-1,4a-dimethyl-1,2,3,4,4a,9,10,10a-octahydrophenanthrene-1-carbonyl)-1,4a-dimethyl-1,2,3,4,4a,9,10,10a-octahydrophenanthrene-1-carboxamide], in the assay on THP1/LXR-Luc cells, the EC50 lay in the range of 1 to 10 nM and the Emax is more than 75%.
As for `O=S(=O)(c1ccccc1)N(CC(F)(F)F)c1ccc(C(O)(C(F)(F)F)C(F)(F)F)cc1` [Compound T0901317, reference compound], in the assay with THP1/LXR-Luc cells, the EC50 was in the range of 10 to 100 nM and the Emax was more than 75%.
As to `CN(C)c1ccc2c(c1)[C@@]1(C)CCC[C@](C)(C(=O)NC(=O)[C@@]3(C)CCC[C@]4(C)c5cc(O)ccc5CC[C@@H]34)[C@@H]1CC2` [Compound 9f, (1S,4aS,10aR)-6-(Dimethylamino)-N-((1S,4aS,10aR)-6-hydroxy-1,4a-dimethyl-1,2,3,4,4a,9,10,10a-octahydrophenanthrene-1-carbonyl)-1,4a-dimethyl-1,2,3,4,4a,9,10,10a-octahydrophenanthrene-1-carboxamide], the concentration for half-maximal inhibition (IC50) at LXR alpha is less than 10 nM. The IC50 at LXR beta was less than 10 nM. Further, in the assay with THP1/LXR-Luc cells, the EC50 lay in the range of 1 to 10 nM and the Emax is more than 75%.
